Test results taken from patent US6921811B2, “Bioactive coating composition and methods” (BioSurface Engineering Technologies, Inc., priority 1998, dated 2005).

What was measured:
[1] = system: thigh muscle of adult rats; assay: Coated Vicryl sutures implanted in muscle, histology; type: in vivo; conditions: two weeks; compared to control suture
Text: Vicryl suture material was coated using a solution containing silyl-heparin complex or a solution containing silyl-heparin complex followed by immersion in bFGF as described above. The suture material was then rinsed extensively, air-dried, mounted on 16 gage needles and stored until use, typically overnight. Under anesthesia, the sutures were passed through the thigh muscle of adult rats and secured with knots and surgical clips. After two weeks the animals were euthanized and the sutured area removed, fixed in formalin, and processed by standard histological methods.

[2] = system: Bovine aorta endothelial cells; assay: Capillary tube formation on coated low attachment wells; type: cell-based; conditions: 5×10^3 cells per well; DMEM containing 10% FBS; 4 days; phase contrast microscopy
Experimental: Low attachment 96 well plates were coated with saline, silyl-heparin complex, silyl-heparin-fibrinogen complex or silyl-heparin-bFGF complex. Bovine aorta endothelial cells (5×10^3 cells) were seeded into each well in DMEM containing 10% FBS. The cells were allowed to grow for 4 days and the cultures examined by phase contrast microscopy.

bFGF = target: T1, bFGF (Homo sapiens, UniProt P09038); assay: bFGF binding to silyl-heparin coated polystyrene wells, immunoassay
T1 construct: purchased Sigma Chemical Co
Experimental: Wells of 96 well polystyrene microtiter plates, with a well surface area of 0.32 cm^2, were coated with 30 μl of silyl heparin for 15 minutes at 37° C. After rinsing and air-drying, bFGF (Sigma Chemical Co.) in PBS/BSA was added in 150 μL aliquots in doubling dilutions. The plate was incubated at 37° C. for 1 hour and rinsed 5 times in PBS. An aliquot 150 μl of PBS/BSA containing 1:500 rabbit anti-FGF antibodies were added, incubated for 1 hour and rinsed. In some cases an irrelevant rabbit antibody was used at a similar concentration (rabbit anti-TGF-receptor II, Santa Cruz Biotechnology). An aliquot of PBS/BSA containing 1:500 HRPO-conjugated donkey anti-rabbit IgG added, and after incubation and rinsing ABTS-chromogen added. All antibody solutions were filtered through 0.2 micron filters prior to use. The absorbance was monitored at 405 nm. […] When anti-TGF-II (irrelevant antibody directed against the transforming growth factor receptor) was used instead of anti-FGF and at the same anti-dilutions, no bFGF was detected. When TGF-β, at a concentration of 40 ng was used as the growth factor molecule, no activity was detected with anti-bFGF antibodies.

Jurkat (human T cell) = assay: Cell attachment on coated low-attachment polystyrene wells; type: cell-based; conditions: 10^4 cells/well, serum-containing medium
Text: (§1) Several cell types were used, including GS-9L cells (rat gliosarcoma), C3H10T1/2 (murine fibroblasts), Jurkat (human T cell), bovine aorta endothelial (BAE) cells and rat lymphocytes. GS-9L and C3H10T1/2 cells were maintained in log phase growth and detached from cultureware using Versene and collected by centrifugation. Jurkat cells grew as single cell suspensions and were collected by centrifugation. Rat lymphocytes were collected from heparinized blood by density gradient isolation over Ficoll-Hypaque® media. The collected cells were rinsed once by low speed centrifugation and suspended in either serum-free Dulbecco's Modified Eagles Medium (DMEM) containing pyruvate or RPMI 1640 containing 10% fetal bovine serum (FBS) supplemented with pyruvate. Aliquots of 10^4 cells in 100 μL were used in subsequent adhesion studies.
(§2) The cells were examined after plating using an inverted, phase-contrast microscope. […] The amount of attachment was scored visually or quantitated. To establish the relative number of cells bound, crystal violet stained cells were dissolved in a solution of 70% ethanol containing 0.1% sodium dodecyl sulfate and 0.38 M Tris and the absorbance monitored at 610 nm, using the methods of Scragg and Ferreira (Anal Biochem 198:80-5, 1991) and Grando et al. (Skin Pharmacol 6:135-47, 1993). […]

rat lymphocytes = assay: as above; type: cell-based; conditions: 10^4 cells/well, serum-containing medium
Text: as §1, §2

C3H10T1/2 cells = assay: C3H10T1/2 cell attachment to a variety of coated substrates; type: cell-based, murine
Experimental: (§3) The cells were examined after plating using an inverted, phase-contrast microscope. At selected time points up to 4 days after initial seeding, the cells were rinsed three times in saline and fixed in buffered 10% formalin or 35% ethanol. In some cases, the cells were stained in situ with a 0.01 % aqueous solution of crystal violet. The amount of attachment was scored visually or quantitated. To establish the relative number of cells bound, crystal violet stained cells were dissolved in a solution of 70% ethanol containing 0.1% sodium dodecyl sulfate and 0.38 M Tris and the absorbance monitored at 610 nm, using the methods of Scragg and Ferreira (Anal Biochem 198:80-5, 1991) and Grando et al. (Skin Pharmacol 6:135-47, 1993).
The general applicability of silyl-heparin-fibronectin complex was evaluated by applying this coating using the methods of Examples 4 and 5 to a variety of surfaces, including polystyrene, polylactide:polyglycolide, polycaprolactone, polyurethane and stainless steel. […] They did, however, bind moderately well to polylactide:polyglycolide and to polycaprolactone, and very well to stainless steel.

[3] = system: GS-9L cells (rat gliosarcoma); assay: Cell attachment, spreading and growth on coated low-attachment polystyrene wells; type: cell-based; conditions: 10^4 cells/well, serum-containing medium
Text: as §1, §3
(§4) The cells of Example 7 were added to untreated polystyrene wells, wells coated with silyl-heparin as in Example 4, with silyl-heparin-fibronectin as in Example 5, and with only fibronectin by incubation as described in Example 5. […] Cells were seeded at a concentration of 10^4 cells/well in serum-containing medium.
(§5) The cells grew to confluency by 4 days. […] No effort was made to grow the cells in a defined- or serum-low medium known to support growth.

[4] = system: bovine aorta endothelial (BAE) cells; assay: as above; type: cell-based; conditions: 10^4 cells/well, serum-containing medium
Text: as §1, §3, §4, §5

[5] = target: T2, vascular endothelial growth factor (VEGF) (Homo sapiens, UniProt P15692); assay: VEGF binding to silyl-heparin coated wells, immunoassay; conditions: anti-VEGF antibodies; absorbance 405 nm
T2 sequence (P15692 27-191 isoform P15692-4 limits assumed): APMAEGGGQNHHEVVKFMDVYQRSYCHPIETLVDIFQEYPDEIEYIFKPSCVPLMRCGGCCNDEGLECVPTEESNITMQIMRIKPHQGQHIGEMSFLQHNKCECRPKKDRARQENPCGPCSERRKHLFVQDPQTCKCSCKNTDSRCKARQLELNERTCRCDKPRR
Experimental: Wells of 96 well polystyrene microtiter plates were coated with 30 μL of silyl heparin for 15 minutes at 37° C. The wells were rinsed extensively in water and air-dried. The wells were blocked by adding 250 μL of PBS containing 1 % BSA for 30 minutes. After removing the blocking solution, VEGF in PBS/BSA was added in 100 μL and at the appropriate concentration. The plate was incubated at 37° C. for 1 hour and rinsed 5 times in water. An aliquot of PBS/BSA containing rabbit anti-VEGF antibodies (1:125) was added and the plate incubated for one hour. After rinsing in water, an aliquot of PBS/BSA containing horseradish peroxidase-conjugated anti-rabbit IgG (1:250) was added and incubated for one hour. After rinsing, 200 μL of chromogen (2,2′-azinobis 3-ethylbenzothiazoline-6-[…]) from a commercially available kit was added, the color developed, and the reaction stopped by adding 50 μL of aqueous 2% sodium dodecyl sulfate (SDS). The absorbance was monitored at 405 nm.

T1 sequence (P09038 143-288, species assumed): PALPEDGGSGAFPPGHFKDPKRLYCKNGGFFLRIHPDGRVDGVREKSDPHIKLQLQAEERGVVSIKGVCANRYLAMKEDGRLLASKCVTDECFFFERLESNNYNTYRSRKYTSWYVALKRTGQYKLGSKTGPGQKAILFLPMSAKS

benzyl-(1,2 dimethyl)disilyl heparin [silyl-heparin]
diameter or area of granulation tissue surrounding the suture [1]: tended to have a smaller area of granulation
capillary tube formation [2]: Tubes did not form
upper saturation limit of the silyl-heparin complex for bFGF (bFGF; color development linear at high concentrations): had not been reached
binding of bFGF to silyl-heparin complexes on a contacting surface (bFGF; immunoassays): readily bound
binding of both fibrinogen and bFGF to heparin on a silyl-heparin complex (bFGF; immunoassays): without displacement of either
CELL ATTACHMENT (Jurkat (human T cell)): did not attach
CELL ATTACHMENT (rat lymphocytes): did not attach
C3H10T1/2 cell attachment on prolonged culture (C3H10T1/2 cells; cells cultured for up to 4 days): no cell attachment was evident
effect of coating or treatment on C3H10T1/2 cell attachment (C3H10T1/2 cells; regardless of the substrate): essentially eliminated cell attachment
C3H10T1/2 CELL ATTACHMENT (C3H10T1/2 cells; surface: Stainless steel, determined by crystal violet staining): inhibition of cell attachment was noted
CELL ATTACHMENT [3]: did not attach
CELL ATTACHMENT [4]: did not attach
binding of VEGF to silyl-heparin [5]: VEGF bound to silyl-heparin and the binding was linear
